Results: patent publication US20260216190A1, “TREATMENT OF HEMATOLOGICAL MALIGNANCIES WITH INHIBITORS OF MENIN” (Kura Oncology, Inc., priority 2018, published 2026)

Biological target: T1, menin-MLL interaction (Homo sapiens, UniProt O00255)
T1 sequence (O00255 1-610): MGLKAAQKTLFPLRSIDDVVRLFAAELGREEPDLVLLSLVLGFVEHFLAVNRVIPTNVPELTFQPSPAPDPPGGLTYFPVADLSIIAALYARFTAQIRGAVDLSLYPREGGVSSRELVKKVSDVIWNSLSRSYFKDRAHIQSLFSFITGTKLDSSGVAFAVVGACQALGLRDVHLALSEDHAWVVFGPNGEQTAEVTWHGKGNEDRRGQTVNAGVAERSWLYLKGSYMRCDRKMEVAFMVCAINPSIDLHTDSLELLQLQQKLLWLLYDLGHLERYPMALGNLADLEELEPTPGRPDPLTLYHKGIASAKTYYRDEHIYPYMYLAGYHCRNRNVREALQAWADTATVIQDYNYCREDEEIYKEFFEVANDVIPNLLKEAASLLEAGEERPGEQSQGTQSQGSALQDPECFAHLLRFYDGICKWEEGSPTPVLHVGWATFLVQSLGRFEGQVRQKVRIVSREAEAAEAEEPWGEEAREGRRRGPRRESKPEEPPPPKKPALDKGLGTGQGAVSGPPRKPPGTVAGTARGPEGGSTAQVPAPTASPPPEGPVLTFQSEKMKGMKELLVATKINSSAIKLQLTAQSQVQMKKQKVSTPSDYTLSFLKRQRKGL
Assay: Fluorescence polarization (FP) competition assay
Assay type: binding
Conditions: read-out: Menin MLL 4-43 IC50

| IC50 | SMILES |
| --- | --- |
| < 50 nM | Cc1c(CN2CCC(Nc3ncnc4sc(CC(F)(F)F)cc34)CC2)ccc2c1cc(C#N)n2CC(C1CC1)N1CCN(S(C)(=O)=O)CC1 (centres unmarked) [Compound I-23] |
| 50 to 250 nM | COCCNS(=O)(=O)N1CCN([C@@H](C)Cn2c(C#N)cc3c(C)c(CN4CCC(Nc5ncnc6sc(CC(F)(F)F)cc56)CC4)ccc32)CC1 [Compound I-142] |
